In this test the target is T1, human PAR4 (Homo sapiens, UniProt Q96RI0).
T1 construct: expressed in transfected cells; host or cells: HEK293 PAR4 Clone 1.2A (BMS Arctic ID 383940)
T1 sequence (Q96RI0 18-385): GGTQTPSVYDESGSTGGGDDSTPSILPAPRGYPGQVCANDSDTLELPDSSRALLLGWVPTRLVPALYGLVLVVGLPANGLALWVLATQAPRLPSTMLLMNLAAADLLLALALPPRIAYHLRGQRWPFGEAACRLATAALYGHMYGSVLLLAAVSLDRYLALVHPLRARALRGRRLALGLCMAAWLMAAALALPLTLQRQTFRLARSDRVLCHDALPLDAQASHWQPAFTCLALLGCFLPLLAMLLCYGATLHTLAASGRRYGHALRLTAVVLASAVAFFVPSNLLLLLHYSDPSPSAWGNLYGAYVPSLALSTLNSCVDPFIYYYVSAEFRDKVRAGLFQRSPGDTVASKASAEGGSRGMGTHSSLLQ
As to the kind of experiment: PAR4 FLIPR assay: antagonism of agonist-peptide-induced calcium mobilization in PAR4-expressing HEK293 cells. It is filed as cell-based. As to conditions: H-Ala-Phe(4-F)-[…]NH2-induced intracellular calcium mobilization, 11-point curves. Background: Calcium flux is commonly read through the fluorescence of an indicator in the cells.

One may read the IC50 as the concentration that inhibits the measured activity by half. In the case of `COc1cc(C)c2nc(-c3cc(C#N)cc4nc(OC)cnc34)sc2c1` [Example 211, 3-methoxy-8-(6-methoxy-4-methylbenzo[d]thiazol-2-yl)quinoxaline-6-carbonitrile], the IC50 turned out to be 21 nM. Consider `COCc1cnc2c(-c3nc4c(Cl)cc(OC)cc4s3)cccc2n1` [Example 212, 4-chloro-6-methoxy-2-(2-(methoxymethyl)quinoxalin-5-yl)benzo[d]thiazole], for which the IC50 is 2.4 nM. In the case of `COCc1cnc2c(-c3nc4c(C)cc(OCCNS(=O)(=O)c5ccc(F)cc5)cc4s3)cccc2n1` [Example 213, 4-fluoro-N-(2-((2-(2-(methoxymethyl)quinoxalin-5-yl)-4-methylbenzo[d]thiazol-6-yl)oxy)ethyl) benzenesulfonamide] it was 5.8 nM. In the case of `COc1cnc2c(-c3nc4c(F)c(F)c(OC)cc4s3)cc(Cl)cc2n1` [Example 214, 2-(7-chloro-2-methoxyquinoxalin-5-yl)-4,5-difluoro-6-methoxybenzo[d]thiazole] it was 4.3 nM; in that of `COc1cnc2c(-c3nc4c(Cl)c(F)c(OC)cc4s3)cc(Cl)cc2n1` [Example 215, 4-chloro-2-(7-chloro-2-methoxyquinoxalin-5-yl)-5-fluoro-6-methoxybenzo[d]thiazole], 2.9 nM. In the case of `COc1cnc2c(-c3nc4c(Cl)c(F)c(OC)cc4s3)c(C)c(C)cc2n1` [Example 216, 4-chloro-5-fluoro-6-methoxy-2-(2-methoxy-6,7-dimethylquinoxalin-5-yl)benzo[d] thiazole] it was 160 nM. `COc1cnc2c(-c3nc4c(F)c(F)c(OC)cc4s3)cc(C#N)cc2n1` [Example 217, 8-(4,5-difluoro-6-methoxybenzo[d]thiazol-2-yl)-3-methoxyquinoxaline-6-carbonitrile]: the IC50 was 18 nM. The figure for `COc1cnc2c(-c3nc4c(Cl)c(F)c(OC)cc4s3)cc(CO)cc2n1` [Example 218, (8-(4-chloro-5-fluoro-6-methoxybenzo[d]thiazol-2-yl)-3-methoxyquinoxalin-6-yl)methanol] is 2.5 nM; for `COc1cnc2c(-c3nc4c(C)c(C)c(OC)cc4s3)cc(CO)cc2n1` [Example 219, (3-methoxy-8-(6-methoxy-4,5-dimethylbenzo [d]thiazol-2-yl)quinoxalin-6-yl)methanol] it is 5.5 nM. With `COc1cnc2c(-c3nc4c(F)c(F)c(OC)cc4s3)cc(CO)cc2n1` [Example 220, (8-(4,5-difluoro-6-methoxybenzo[d]thiazol-2-yl)-3-methoxyquinoxalin-6-yl)methanol], the IC50 amounted to 2.6 nM. In the case of `COc1cnc2c(-c3nc4cc(F)c(OC)cc4s3)cc(C#N)cc2n1` [Example 221, 8-(5-fluoro-6-methoxybenzo[d]thiazol-2-yl)-3-methoxyquinoxaline-6-carbonitrile] it was 21 nM. In the case of `COc1cnc2c(-c3nc4cc(F)c(OC)cc4s3)cc(CO)cc2n1` [Example 222, (8-(5-fluoro-6-methoxybenzo [d]thiazol-2-yl)-3-methoxyquinoxalin-6-yl)methanol] it was 1 nM; in that of `COc1cnc2c(-c3nc4c(C)cc(OC)nc4s3)cc(CO)cc2n1` [Example 223, (3-methoxy-8-(5-methoxy-7-methylthiazolo[5,4-b]pyridin-2-yl)quinoxalin-6-yl)methanol], 10 nM; in that of `COc1cnc2c(-c3nc4c(Cl)c(F)c(OC)cc4s3)cc(CO)c(F)c2n1` [Example 224, (8-(4-chloro-5-fluoro-6-methoxybenzo[d]thiazol-2-yl)-5-fluoro-3-methoxyquinoxalin-6-yl)methanol], 15 nM.

Take `COCc1cnc2c(-c3nc4c(C)cc(OCCNS(=O)(=O)c5ccc(F)cc5)cc4s3)cc(C(N)=O)cc2n1` [Example 225, 8-(6-(2-(4-fluorophenylsulfonamido)ethoxy)-4-methylbenzo[d]thiazol-2-yl)-3-(methoxymethyl)quinoxaline-6-carboxamide]: the IC50 stood at 54 nM.

For the compound `COCc1cnc2c(-c3nc4c(C)cc(OCCNS(=O)(=O)c5ccc(F)cc5)cc4s3)cc(C(=O)N3CCCCC3)cc2n1` [Example 227, 4-fluoro-N-(2-((2-(2-(methoxymethyl)-7-(piperidine-1-carbonyl)quinoxalin-5-yl)-4-methylbenzo[d]thiazol-6-yl)oxy)ethyl)benzenesulfonamide], the IC50 came to 160 nM. The figure for `COCCNC(=O)c1cc(-c2nc3c(C)cc(OCCNS(=O)(=O)c4ccc(F)cc4)cc3s2)c2ncc(COC)nc2c1` [Example 228, 8-(6-(2-(4-fluorophenylsulfonamido)ethoxy)-4-methylbenzo[d]thiazol-2-yl)-N-(2-methoxyethyl)-3-(methoxymethyl)quinoxaline-6-carboxamide] is 890 nM. The figure for `C=Cc1cc(-c2nc3c(C)cc(OCCNS(=O)(=O)c4ccc(F)cc4)cc3s2)c2ncc(OC)nc2c1` [Example 229, 4-fluoro-N-(2-((2-(2-methoxy-7-vinylquinoxalin-5-yl)-4-methylbenzo[d]thiazol-6-yl)oxy)ethyl)benzenesulfonamide] is 3.9 nM.

Turning to `C#Cc1cc(-c2nc3c(C)cc(OCCNS(=O)(=O)c4ccc(F)cc4)cc3s2)c2ncc(OC)nc2c1` [Example 230, N-(2-((2-(7-ethynyl-2-methoxyquinoxalin-5-yl)-4-methylbenzo[d]thiazol-6-yl)oxy)ethyl)-4-fluorobenzenesulfonamide], the IC50 came out at 2.2 nM.

For `COc1cnc2c(-c3nc4c(C)cc(OCCNS(=O)(=O)c5ccc(F)cc5)cc4s3)cc(C#N)cc2n1` [Example 231, N-(2-((2-(7-cyano-2-methoxyquinoxalin-5-yl)-4-methylbenzo[d]thiazol-6-yl)oxy)ethyl)-4-fluorobenzenesulfonamide], the IC50 came out at 1 nM. In the case of `COCc1cnc2c(-c3nc4c(C)cc(OCCNS(=O)(=O)c5ccc(F)cc5)cc4s3)cc(C#N)cc2n1` [Example 232, N-(2-((2-(7-cyano-2-(methoxymethyl)quinoxalin-5-yl)-4-methylbenzo[d]thiazol-6-yl)oxy)ethyl)-4-fluorobenzenesulfonamide] it was 0.7 nM; in that of `COCc1cnc2c(-c3nc4c(C)cc(OC)cc4s3)cc(C#N)cc2n1` [Example 233, 8-(6-methoxy-4-methylbenzo[d]thiazol-2-yl)-3-(methoxymethyl)quinoxaline-6-carbonitrile], 0.4 nM; in that of `C=Cc1cc(-c2nc3c(C)cc(OCCNS(=O)(=O)c4ccc(F)cc4)cc3s2)c2ncc(COC)nc2c1` [Example 234, 4-fluoro-N-(2-((2-(2-(methoxymethyl)-7-vinylquinoxalin-5-yl)-4-methylbenzo[d]thiazol-6-yl)oxy)ethyl)benzenesulfonamide], 1.4 nM.

Consider `COc1cnc2c(-c3nc4c(C)cc(OCCNS(=O)(=O)c5ccc(F)cc5)cc4s3)cc(CO)cc2n1` [Example 235, 4-fluoro-N-(2-((2-(7-(hydroxymethyl)-2-methoxyquinoxalin-5-yl)-4-methylbenzo[d]thiazol-6-yl)oxy)ethyl)benzenesulfonamide], for which the IC50 is 2.2 nM. In the case of `COc1cnc2c(-c3nc4c(C)cc(OCCNS(=O)(=O)c5ccc(F)cc5)cc4s3)cc(C(O)CO)cc2n1` (stereo not shown) [Example 236, N-(2-((2-(7-(1,2-dihydroxyethyl)-2-methoxyquinoxalin-5-yl)-4-methylbenzo[d]thiazol-6-yl)oxy)ethyl)-4-fluorobenzenesulfonamide] it was 140 nM. In the case of `COc1cnc2c(-c3nc4c(C)cc(OCCNS(=O)(=O)c5ccc(F)cc5)cc4s3)cc(CCO)cc2n1` [Example 237, 4-fluoro-N-(2-((2-(7-(2-hydroxyethyl)-2-methoxyquinoxalin-5-yl)-4-methylbenzo[d]thiazol-6-yl)oxy)ethyl)benzenesulfonamide] it was 170 nM; in that of `COc1cnc2c(-c3nc4c(C)cc(OCCNS(=O)(=O)c5ccc(F)cc5)cc4s3)cc(CN)cc2n1` [Example 238, N-(2-((2-(7-(aminomethyl)-2-methoxyquinoxalin-5-yl)-4-methylbenzo[d]thiazol-6-yl)oxy)ethyl)-4-fluorobenzenesulfonamide], 1300 nM. As to `COc1cnc2c(-c3nc4c(C)cc(OCCNS(=O)(=O)c5ccc(F)cc5)cc4s3)cc(C(C)O)cc2n1` (stereo not shown) [Example 239, 4-fluoro-N-(2-((2-(7-(1-hydroxyethyl)-2-methoxyquinoxalin-5-yl)-4-methylbenzo[d]thiazol-6-yl)oxy)ethyl)benzenesulfonamide], the half-maximal inhibitory concentration (IC50) amounted to 7.9 nM. `COc1cnc2c(-c3nc4c(C)cc(OCCNS(=O)(=O)c5ccc(F)cc5)cc4s3)cc(C(O)c3ccccc3)cc2n1` (stereo not shown) [Example 240, 4-fluoro-N-(2-((2-(7-(hydroxy(phenyl)methyl)-2-methoxyquinoxalin-5-yl)-4-methylbenzo[d]thiazol-6-yl)oxy)ethyl)benzenesulfonamide]: the IC50 stood at 72 nM.

As for `C=C(C)c1cc(-c2nc3c(C)cc(OCCNS(=O)(=O)c4ccc(F)cc4)cc3s2)c2ncc(OC)nc2c1` [Example 241, 4-fluoro-N-(2-((2-(2-methoxy-7-(prop-1-en-2-yl)quinoxalin-5-yl)-4-methylbenzo[d]thiazol-6-yl)oxy)ethyl)benzenesulfonamide], the IC50 was 5.4 nM. The figure for `COc1cnc2c(-c3nc4c(C)cc(OCCNS(=O)(=O)c5ccc(F)cc5)cc4s3)cc(C(C)(C)O)cc2n1` [Example 242, 4-fluoro-N-(2-((2-(7-(2-hydroxypropan-2-yl)-2-methoxyquinoxalin-5-yl)-4-methylbenzo[d]thiazol-6-yl)oxy)ethyl)benzenesulfonamide] is 120 nM.

Values taken from US12060347B2 (BRISTOL-MYERS SQUIBB COMPANY, priority 2016, dated 2024).
